Experimental data from patent publication EP4119145A1, “COMPOUNDS FOR THE TREATMENT OF COVID-19” (priority 2021, dated 2023).
Counter-ions that a name gives are not always drawn. Like-named read-outs stand apart in the source and are kept apart here.

Target: SARS-CoV-2 PL-Pro (Severe acute respiratory syndrome coronavirus 2, UniProt P0DTD1)
Assay: biochemical
Details: for inhibition at 20 µM: read-out: PLPro Inhibition [%] Primary Screen (20 µM)
[1] = dose response, 0.014 µM to 20 µM, 8 concentration points, read-out: IC50

Compound | IC50 [1] [nM] | inhibition at 20 µM [%] | IC50 [nM] | PLPro Inhibition [%] Primary Screen (20 µM) [%] | IC50 (read-out: IC50) [nM]
Cc1nc2c(=O)n(C)c(=O)nc-2n(C)n1 [Compound 2, 1,3,6-Trimethylpyrimido[5,4-e][1,2,4]triazine-5,7(1H,6H)-dione] | 74 | 181 | – | – | –
Cc1cc2nc3c(=O)[nH]c(=O)nc-3n(C)c2cc1C=O [Compound 3, 7,10-Dimethyl-2,4-dioxo-2,3,4,10-tetrahydrobenzo[g]pteridine-8-carbaldehyde] | 401 | 119 | – | – | –
O=C1C(=O)c2cc([N+](=O)[O-])ccc2-c2ccccc21 [Compound 4, 2-Nitrophenanthrene-9,10-dione] | 129 | 186 | – | – | –
CC(C)(C)C(=O)Nc1ccc2c(c1)C(=O)C(=O)c1ccccc1-2 [Compound 5, N-(9,10-Dioxo-9,10-dihydrophenanthren-2-yl)-2,2-dimethylpropionamide] | 246 | 184 | – | – | –
O=C1C(=O)c2ccccc2-c2ccccc21 [Compound 6, phenanthrene-9,10-dione] | 504 | 181 | – | – | –
Cc1c(S(=O)(=O)O)oc2c1C(=O)C(=O)c1c-2ccc2c1CCCC2(C)C [Compound 8, 1,6,6-Trimethyl-10,11-dioxo-6,7,8,9,10,11-hexahydrophenanthro[1,2-b]furan-2-sulfonic acid sodium salt] | – | 124 | – | – | –
CC1(C)C(=O)N=C2C1=C(O)C(=O)c1ccccc12 [Compound 9, 4-Hydroxy-3,3-dimethyl-3,5-dihydro-2H-benzobenzo[g]indole-2,5-dione] | 390 | 155 | – | – | –
CC1(C)CCC2=C(O1)c1ccccc1C(=O)C2=O [Compound 10, 2,2-Dimethyl-3,4-dihydro-2H-benzo[h]1-benzopyrane-5,6-dione] | 4430 | 146 | – | – | –
Cc1cccc2c1ccc1c3c(c(=O)oc(=O)c12)[C@@H](C)CO3 [Compound 11, (4R)-4,9-Dimethyl-4,5-dihydrofuro[3,2-c]naphtho[2,1-e]oxepine-1,3-dione] | 920 | 80.7 | – | – | –
O=C1C(Cl)=C(NCCN2CCOCC2)C(=O)c2ncccc21 [Compound 12, 6-Chloro-7-[2-(4-morpholinyl)ethylamino]-5,8-dihydroquinoline-5,8-dione] | – | 151 | 220 | – | –
Cc1ccc(NC2=CC(=O)c3sc(C)nc3C2=O)cc1 [Compound 13, 2-methyl-5-(4-methylanilino)-1,3-benzothiazole-4,7-dione] | 260 | 160 | – | – | –
CC[N+](C)(CC)CCC[n+]1c(-c2ccccc2)c2cc(N)ccc2c2ccc(N)cc21 [Compound 14, 3,8-Diamino-5-(3-(diethyl(methyl)ammonio)propyl)-6-phenylphenanthridin-5-ium iodide] | – | 136 | 240 | – | –
CCOC(=O)C1=C(C)N=c2s/c(=C\c3ccc(OCC(=O)O)cc3)c(=O)n2C1c1ccc(SC)cc1 (centres unmarked) [Compound 15, 2-[4-[(Z)-[6-ethoxycarbonyl-7-methyl-5-(4-methylsulfanylphenyl)-3-oxo-5H-[1,3]thiazolo[3,2-a]pyrimidin-2-ylidene]methyl]phenoxy]acetic acid] | 3140 | 82.8 | – | – | –
CC(=NNC(=N)N)c1cc(NC(=O)CCCCCCCCC(=O)Nc2cc(C(C)=NNC(=N)N)cc(C(C)=NNC(=N)N)c2)cc(C(C)=NNC(=N)N)c1 [Compound 16, N,N'-Bis[3,5-bis[1-(2-amidinohydrazono)ethyl]phenyl]decanediamide] | 1210 | 140 | – | – | –
cobalt(3+);[(2R,3S,4R,5S)-5-(5,6-dimethylbenzimidazol-1-yl)-4-hydroxy-2-(hydroxymethyl)oxolan-3-yl][(2R)-1-[3-[(1R,2R,3R,4Z,7S,9Z,12S,13S,14Z,17S,18S,19R)-2,13,18-tris(2-amino-2-oxoethyl)-7,12,17-tris(3-amino-3-oxopropyl)-3,5,8,8,13,15,18,19-octamethyl-2,7,12,17-tetrahydro-1H-corrin-21-id-3-yl]propanoylamino]propan-2-yl] phosphate;cyanide [Compound 17] | – | – | – | 141.27 | 2900
